Structures can show the parent of a compound that is named as a salt. Where two headings read alike, the source gives them in different places.
What was measured:
HL-1 cells = assay: Contractile activity (spontaneous beating) of HL-1 cells; type: cell-based, mouse
Procedure: CONTRACTILE ACTIVITY OF HL-1 CELLS
HL-1 cells are found to respond to several pharmacological agents in a manner expected for cardiomyocytes. Confluent cultures of HL-1 cells at passage 33 in growth medium (without norepinephrine or retinoic acid) display spontaneous contractile activity (beating).
In other experiments, spontaneously beating confluent HL-1 cells in growth medium are stopped by adding propranolol. First, norepinephrine bitartrate is added to a final concentration of 10^-5 M. Under these stimulated conditions, propranolol is subsequently added.
To determine if the effect of 10^-4 M propranolol is reversible, the culture medium containing propranolol is removed and growth medium (without norepinephrine or retinoic acid) is added to the cell cultures.

[1] = system: IKr in guinea pig myocytes; conditions: cited from earlier work
[2] = biological target: T1, [^3 H]dofetilide binding site in HL-1 cells (IKr) (Mus musculus, UniProt O35219); assay: biochemical
T1 sequence (O35219 1-1162): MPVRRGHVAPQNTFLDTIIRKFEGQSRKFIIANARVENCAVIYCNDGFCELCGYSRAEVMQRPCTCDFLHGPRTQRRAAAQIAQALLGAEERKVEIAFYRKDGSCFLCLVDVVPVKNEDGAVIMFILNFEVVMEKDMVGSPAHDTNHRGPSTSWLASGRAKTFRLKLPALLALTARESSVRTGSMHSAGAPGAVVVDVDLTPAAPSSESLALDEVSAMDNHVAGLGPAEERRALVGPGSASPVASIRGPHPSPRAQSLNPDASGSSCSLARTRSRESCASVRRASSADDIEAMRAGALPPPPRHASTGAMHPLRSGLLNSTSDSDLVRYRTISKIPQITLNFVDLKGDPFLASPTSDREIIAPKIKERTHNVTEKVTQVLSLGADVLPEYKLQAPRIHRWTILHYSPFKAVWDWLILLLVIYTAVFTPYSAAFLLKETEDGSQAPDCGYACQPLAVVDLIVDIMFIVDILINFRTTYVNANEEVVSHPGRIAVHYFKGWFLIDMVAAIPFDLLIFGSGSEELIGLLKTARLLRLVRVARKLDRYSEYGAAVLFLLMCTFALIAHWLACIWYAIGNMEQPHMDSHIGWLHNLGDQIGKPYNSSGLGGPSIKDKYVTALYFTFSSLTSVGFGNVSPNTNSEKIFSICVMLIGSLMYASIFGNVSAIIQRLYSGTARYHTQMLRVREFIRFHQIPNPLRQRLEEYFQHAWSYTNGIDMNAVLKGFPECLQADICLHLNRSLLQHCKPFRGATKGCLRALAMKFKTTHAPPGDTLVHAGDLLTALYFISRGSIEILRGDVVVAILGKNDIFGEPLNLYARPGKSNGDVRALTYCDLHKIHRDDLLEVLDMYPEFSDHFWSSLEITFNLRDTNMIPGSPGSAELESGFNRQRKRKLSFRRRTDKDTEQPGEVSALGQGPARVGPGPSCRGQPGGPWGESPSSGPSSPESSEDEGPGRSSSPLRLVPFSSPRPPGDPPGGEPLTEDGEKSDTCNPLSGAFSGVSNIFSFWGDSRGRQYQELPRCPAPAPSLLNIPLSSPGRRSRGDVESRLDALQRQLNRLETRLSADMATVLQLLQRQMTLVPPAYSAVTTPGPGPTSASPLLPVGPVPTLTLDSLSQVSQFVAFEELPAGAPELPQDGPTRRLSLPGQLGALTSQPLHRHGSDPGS
Procedure: HL-1 cells from passages 60 to 80 are dissociated from tissue culture flasks with a 5 min incubation with 0.1% trypsin (Clonetics, San Diego) followed by inactivation in a trypsin neutralizing solution (Clonetics, San Diego). The cells are suspended in a buffer containing (mM) KCl 40, KH2 PO4 20, MgCl2 5, KHCO3 0.5, glucose 10, potassium glutamate5 0, potassium asparate 20, EGTA 1 and HEPES (N-[2-Hydroxyethyl]piperazine-N'-[2-ethanesulfonic acid]) 10, adjusted to pH 7.4 with KOH and containing 0.1% bovine serum albumin (BSA). […] The cells are then filtered on GF/C Unifilter® 96 well filter plates (Packard, Meriden, Conn.) using a Packard Micromate496® harvester. Filter plates are presoaked with wash buffer (25 mM Tris-HCl, 130 mM NaCl, 5.5 mM KCl, 0.8 mM MgCl2 and 50 μM CaCl2 [pH 7.4]) containing 1.0% BSA and washed following harvesting at room temperature with four ×1 ml washes of the same buffer without BSA.

guinea pig myocytes = conditions: read-out: Kd for [^3 H]dofetilide binding in guinea pig myocytes, mean+/-SD, n=3, Chadwick et al; cited from earlier work
[3] = system: [^3 H]dofetilide binding site in guinea pig myocytes; conditions: cited from earlier work
[4] = system: IKr in rabbit ventricular myocytes; conditions: Carmeliet 1992, read-out: IC50 reported for IKr in rabbit ventricular myocytes; cited from earlier work

COc1ccc(CCN(C)CCCC(C#N)(c2ccc(OC)c(OC)c2)C(C)C)cc1OC (centres unmarked) [verapamil hydrochloride]
contractile activity after addition of drug (HL-1 cells; final concentrations of 10^-7 M, 10^-6 M and 10^-5 M, growth medium without norepinephrine or retinoic acid): no observable contractile activity

CN1CCN(CCCCN2C(=O)CN(/N=C/c3ccc(-c4ccc(Cl)cc4)o3)C2=O)CC1 [azimilide dihydrochloride]
IC50 ([1]; Fermini et al 1995, read-out: IC50 for blocking the rapidly activating component of the delayed rectifier IKr): 400 nM | Kd [2]: 800 nM

[3H]c1cc(OCCN(C)CCc2ccc(NS(C)(=O)=O)cc2)ccc1NS(C)(=O)=O [[^3 H]dofetilide]
Kd (guinea pig myocytes): 70 ± 6 nM

NC[C@H](O)c1ccc(O)c(O)c1 [norepinephrine bitartrate]
contractile activity (beating) of HL-1 cells (HL-1 cells; final concentration 10^-5 M, passage 33, within two minutes, growth medium without norepinephrine or retinoic acid): beating faster

CC(C)NCC(O)COc1cccc2ccccc12 (centres unmarked) [propranolol]
time to arrest of all contractions (HL-1 cells; final concentration 10^-4 M, after 10^-5 M norepinephrine bitartrate): ≤ 10 min | arrest of contractions (HL-1 cells; final concentration 10^-4 M, after stimulation with 10^-5 M norepinephrine bitartrate, within 10 minutes): arrests all contractions | effect on contractile activity (HL-1 cells; final concentrations of 10^-7 M, 10^-6 M, and 10^-5 M, after 10^-5 M norepinephrine bitartrate): no observable effect | time to recovery of contractile activity after removal of drug (HL-1 cells; previously exposed to 10^-4 M (printed 10^31 4 M)): ≤ 1 h | reversibility: contractile activity after removal of drug (HL-1 cells; previously exposed to 10^-4 M (printed 10^31 4 M), within 1 hour after medium change): contractile activity similiar to control HL-1 cell not exposed to propranolol

CCCCCCC[N+](CC)(CC)CCCCc1ccc(Cl)cc1 [clofilium]
Kd ([3]; cardiac myocytes): 1290 nM

CN(CCOc1ccc(NS(C)(=O)=O)cc1)CCc1ccc(NS(C)(=O)=O)cc1 [dofetilide]
IC50 [4]: 4 nM | Kd ([3]; read-out: Kd, competition for [^3 H]dofetilide binding, Cardiac Myocytes, primary guinea pig myocytes, Chadwick et al, SEM and N in own columns): 100 nM | IC50 ([1]; Jurkiewicz and Sanguinetti 1993, read-out: IC50 reported for IKr in guinea pig myocytes): 31 nM
